Measured values reported in the CheMixHub ionic liquid set.

Test: xn = mol fraction of the nth substance listed

O=C(O)CCl + CCC[N+](CCC)(CCC)CCC.[Br-]
100 kPa, x2 = 0.333
Conditions	electrical conductivity [S/m]	viscosity [mPa·s]
308.15 K	0.136	61.13
328.15 K	0.345	21.57

CC(=O)[O-].Cn1cc[nH+]c1 + CCO
293.15 K, 101.3 kPa
Conditions	electrical conductivity [S/m]
x2 = 0	0.326
x2 = 0.9371	0.448

CCCC[n+]1ccn(C)c1.O=[N+]([O-])[O-] + CCO
101 kPa
Conditions	viscosity [mPa·s]
283.15 K, x2 = 0.447	35.48
288.15 K, x2 = 0.352	51.47
288.15 K, x2 = 0.663	9.58
288.15 K, x2 = 0.748	6.39
293.15 K, x2 = 0.254	67.9
293.15 K, x2 = 0.4	31.2
293.15 K, x2 = 0.748	5.61
298.15 K, x2 = 0	159
298.15 K, x2 = 0.11	105.5
298.15 K, x2 = 0.2	58.3
298.15 K, x2 = 0.663	7.62
298.15 K, x2 = 0.748	4.83
303.15 K, x2 = 0.447	16.15
303.15 K, x2 = 0.6	10.1
303.15 K, x2 = 0.852	2.46
308.15 K, x2 = 0.11	59.6
308.15 K, x2 = 0.2	38.6
308.15 K, x2 = 0.352	21.4
308.15 K, x2 = 0.663	5.77
313.15 K, x2 = 0.11	47.55
313.15 K, x2 = 0.2	32.1
313.15 K, x2 = 0.254	29.2
318.15 K, x2 = 0.2	26.9
318.15 K, x2 = 0.254	24.53
318.15 K, x2 = 0.4	14.2
318.15 K, x2 = 0.852	1.9
328.15 K, x2 = 0.447	7.87
333.15 K, x2 = 0.254	15.52

CCOS(=O)(=O)[O-].CC[n+]1ccn(C)c1 + CCO
298.15 K, 101 kPa
Conditions	viscosity [mPa·s]
x2 = 0.2187	47.7
x2 = 0.7508	5.08
x2 = 0.7866	4.31

CC[N+]1(C)CCCC1.COP(=O)([O-])OC + CCO
100 kPa
Conditions	viscosity [mPa·s]
293.15 K, x1 = 0.0534	2.2
293.15 K, x1 = 0.1535	5.03
298.15 K, x1 = 0.1535	4.5
298.15 K, x1 = 0.306	11.71
303.15 K, x1 = 0.1535	4.05
303.15 K, x1 = 1	123.5
308.15 K, x1 = 0.5052	20.8
308.15 K, x1 = 0.6938	40.6
308.15 K, x1 = 1	93.5
318.15 K, x1 = 0.1054	2.13
323.15 K, x1 = 0.0534	1.37
323.15 K, x1 = 0.1535	2.82
323.15 K, x1 = 0.2015	3.64
323.15 K, x1 = 0.6938	22.8
323.15 K, x1 = 0.8049	30.6
328.15 K, x1 = 0.1054	1.84
328.15 K, x1 = 0.2015	3.34
328.15 K, x1 = 0.6022	14.74
328.15 K, x1 = 0.8049	24.8
333.15 K, x1 = 0.2015	3.05
338.15 K, x1 = 0.0534	1.1
338.15 K, x1 = 0.9073	20.5
338.15 K, x1 = 1	24

CC[n+]1ccn(CCOC)c1.N#C[S-] + CCO
100 kPa
Conditions	viscosity [mPa·s]
293.15 K, x1 = 0.1	2.15
293.15 K, x1 = 0.3995	8.78
293.15 K, x1 = 0.6	20
293.15 K, x1 = 0.797	42.3
298.15 K, x1 = 0.3002	4.94
303.15 K, x1 = 0.3002	4.39
303.15 K, x1 = 0.8964	35.9
303.15 K, x1 = 1	44.3
308.15 K, x1 = 0.1999	2.58
308.15 K, x1 = 0.7	16.96
308.15 K, x1 = 0.797	23.4
308.15 K, x1 = 0.8964	29.6
308.15 K, x1 = 1	36
313.15 K, x1 = 0.3995	5.28
313.15 K, x1 = 0.797	19.8
318.15 K, x1 = 0.1999	2.14

CCOS(=O)(=O)[O-].CC[n+]1ccn(C)c1 + CCO + CCOC(C)(C)C
298.15 K, 101 kPa
Conditions	viscosity [mPa·s]
x2 = 0, x3 = 0	100.4
x2 = 0.1271, x3 = 0	65.5
x2 = 0.1281, x3 = 0	66.1
x2 = 0.2039, x3 = 0	49.8
x2 = 0.2187, x3 = 0	47.7
x2 = 0.3088, x3 = 0	34.69
x2 = 0.3256, x3 = 0	32.21
x2 = 0.3598, x3 = 0	28.75
x2 = 0.4147, x3 = 0	22.88
x2 = 0.4336, x3 = 0	21.39
x2 = 0.4604, x3 = 0	18.98
x2 = 0.5103, x3 = 0	15.4
x2 = 0.5223, x3 = 0	14.78
x2 = 0.5724, x3 = 0	11.74
x2 = 0.5926, x3 = 0	10.83
x2 = 0.5951, x3 = 0	10.65
x2 = 0.712, x3 = 0	6.13
x2 = 0.7174, x3 = 0	5.98
x2 = 0.7508, x3 = 0	5.08
x2 = 0.7676, x3 = 0	4.68
x2 = 0.7866, x3 = 0	4.31
x2 = 0.806, x3 = 0	3.86
x2 = 0.8666, x3 = 0	2.709
x2 = 0.9026, x3 = 0	2.189
x2 = 0.9062, x3 = 0	2.138
x2 = 0.9504, x3 = 0	1.628
x2 = 0.9522, x3 = 0	1.589
